Measured values as given in US20230097253A1, “NOVEL QUINAZOLINE COMPOUND AS THERAPEUTIC AGENT FOR METABOLIC DISORDERS” (BIOWAY., INC, priority 2020, published 2023).

Legend:
[1] = molecular target: T1, SIRT1 (Homo sapiens, UniProt Q96EB6); assay: Measurement of SIRT1 activity (Sirt1 direct fluorescent screening assay kit); assay type: biochemical; conditions: compared with the control (RSV, resveratrol); FIG. 14
T1 construct: purchased Cayman
T1 sequence (Q96EB6 1-747): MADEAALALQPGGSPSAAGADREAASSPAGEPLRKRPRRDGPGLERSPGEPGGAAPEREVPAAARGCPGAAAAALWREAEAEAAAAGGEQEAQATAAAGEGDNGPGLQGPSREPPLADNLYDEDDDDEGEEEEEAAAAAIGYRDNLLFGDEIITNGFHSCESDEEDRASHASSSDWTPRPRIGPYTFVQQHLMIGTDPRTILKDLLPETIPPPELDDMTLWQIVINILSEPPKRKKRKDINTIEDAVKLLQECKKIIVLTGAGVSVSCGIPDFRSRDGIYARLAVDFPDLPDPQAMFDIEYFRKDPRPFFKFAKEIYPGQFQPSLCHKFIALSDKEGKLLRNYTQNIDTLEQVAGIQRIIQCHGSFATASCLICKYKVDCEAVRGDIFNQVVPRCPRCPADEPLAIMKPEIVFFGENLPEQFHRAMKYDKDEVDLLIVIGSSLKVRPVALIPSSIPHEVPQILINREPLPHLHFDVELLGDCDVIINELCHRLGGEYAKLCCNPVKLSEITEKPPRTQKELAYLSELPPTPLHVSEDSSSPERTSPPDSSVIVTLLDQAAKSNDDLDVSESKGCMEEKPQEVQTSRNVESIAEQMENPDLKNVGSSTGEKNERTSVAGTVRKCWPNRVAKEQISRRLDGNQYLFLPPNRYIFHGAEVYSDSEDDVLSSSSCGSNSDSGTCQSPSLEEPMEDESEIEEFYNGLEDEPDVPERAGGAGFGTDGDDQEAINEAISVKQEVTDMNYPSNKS
Procedure: All of the materials were provided from Sirt1 direct fluorescent screening assay kit (Cayman, Ann Arbor, Mich., USA).
SIRT1, p53 conjugated aminomethylcoumarin (AMC) protein, and 3 mM NAD+ were added to diluted assay buffer (50 mM Tris-HCl, pH 8.0, 137 mM NaCl, 2.7 mM KCl, and 1 mM MgCl2).
Three 100% initial activity wells among the 96-wells were added with 25 μL of assay buffer, 5 μL of diluted SIRT1, and 5 μL of a solvent.
Three background wells among the 96-wells were added with 30 μL of assay buffer and […].
Three sample wells among the 96-wells were added with 25 μL of assay buffer, 5 μL of diluted SIRT1, and 5 μL of a diluted test compound. The final DMSO concentration was lower than 2%. […]
After removing the plate cover, the plate was read with Cytation 5 using an excitation wavelength at 360 nm and an emission wavelength at 450 nm.
Then, the average level of fluorescence for each sample was measured.
The fluorescence level of the background well was subtracted from the fluorescence level of the 100% starting active well and that of the sample well.
To determine the percentage of each sample, each sample value was subtracted from the 100% initial activity value, divided by the 100% initial activity value, and multiplied by 100, and the resulting value was added to 100 and expressed as a percentage. […]

[2] = system: Huh7 cells induced with inflammatory response; assay: Gene expression in liver cells induced with inflammatory response (qRT-PCR); assay type: cell-based; conditions: Huh7 cells pretreated with IL-1β; 0.5, 2.5, 10 μM; FIG. 11, FIG. 12
Procedure: After culturing the Huh-7 cells to grow to a confluency of 80-90% in a 6 well plate, except for the control, the cells were pretreated with IL-1β and then treated with BW-3290, which is the compound of the present invention, diluted in the culture medium to concentrations of 0.5 μM, 2.5 μM, and 10 μM, so as to induce an inflammatory response.
Additionally, the total RNA was extracted using the RNeasy RNA isolation kit (Qiagen, Hilden, Germany).
Additionally, 10 μL of […] per mL of a cell lysis solution was additionally prepared.
Additionally, the cells were washed twice with cold PBS and 350 μL of RNA lysis buffer was added thereto.
Additionally, 70% EtOH was added to the lysate in an equal volume, mixed by pipetting, transferred to a spin column, and centrifuged at 8,000×g for 15 seconds.
Additionally, the flow-through solution was removed and 700 μL of a wash solution was added to the spin column, centrifuged at 8,000×g, and the flow-through solution was removed.
Additionally, 500 μL of the wash buffer containing EtOH was added to the spin column and centrifuged at 8,000×g for 2 minutes (repeated 2 times)
Additionally, the flow-through solution was discarded and centrifuged once more to completely dry the spin column membrane.
Additionally, the spin column was placed into a new Eppendorf tube and 50 μL of RNase-free water was added directly to the spin column membrane and centrifuged at 8,000×g for 1 minute to dissolve and isolate the RNA.
Additionally, RNA concentration was measured at OD 260 nm using the Nanophotometer N60 (Implen, Munich, Germany)
Additionally, 1 μg of total RNA was reverse transcribed in the first strand synthesis buffer containing oligo (dT) primer (6 μg/mL), random primer (3 μg/mL), 50 U of reverse transcriptase, 4 mM dNTP, […], 5 mM magnesium chloride (MgCl2), and 40 U of RNase inhibitor.
Additionally, cDNA was synthesized using a polymerase chain reaction (PCR) device which was set to undergo denaturation at 95° C. for 5 minutes, cDNA synthesis at 42° C. for 50 minutes, and denaturation at 95° C. for 5 minutes. […]

CC(C)C(Nc1ncnc2nc[nH]c12)c1nc2cccc(Cl)c2c(=O)n1-c1ccccc1 (stereo not shown) [BW-3290, 2-(1-((7H-purin-6-yl)amino)-2-methylpropyl)-5-chloro-3-phenylquinazolin-4(3H)-one]
SIRT1 activity level [1]: further increases
gene expression level of IL-6 [2]: decreased in a concentration-dependent manner
gene expression level of IL-8 [2]: decreased in a concentration-dependent manner
gene expression level of TNF-α [2]: decreased in a concentration-dependent manner
